The values that follow come from paper PMC4508061, “Selectivity Profiling and Biological Activity of Novel β-Carbolines as Potent and Selective DYRK1 Kinase Inhibitors” (PLoS ONE, 2015).

Molecules are shown by their SMILES. Read-outs that look alike come from different tables or passages of the source.

Data set [1] can be described thus: Cell viability XTT assay. As to conditions: rat, PC12 cells, read-out: Viability of treated cells relative to untreated control; for viability at 3 days, 1 µM: PC12, 1 μM; for viability at 3 days, 3 µM: PC12, 3 μM; for viability at 3 days, 10 µM: PC12, 10 μM. The format is cell-based. (Tetrazolium dyes change colour on reduction, which living cells bring about.)
The target in data set [2] is T1, DYRK2 (Homo sapiens, UniProt Q92630).
T1 construct: purchased ProQinase (Freiburg, Germany)
T1 sequence (Q92630 1-601): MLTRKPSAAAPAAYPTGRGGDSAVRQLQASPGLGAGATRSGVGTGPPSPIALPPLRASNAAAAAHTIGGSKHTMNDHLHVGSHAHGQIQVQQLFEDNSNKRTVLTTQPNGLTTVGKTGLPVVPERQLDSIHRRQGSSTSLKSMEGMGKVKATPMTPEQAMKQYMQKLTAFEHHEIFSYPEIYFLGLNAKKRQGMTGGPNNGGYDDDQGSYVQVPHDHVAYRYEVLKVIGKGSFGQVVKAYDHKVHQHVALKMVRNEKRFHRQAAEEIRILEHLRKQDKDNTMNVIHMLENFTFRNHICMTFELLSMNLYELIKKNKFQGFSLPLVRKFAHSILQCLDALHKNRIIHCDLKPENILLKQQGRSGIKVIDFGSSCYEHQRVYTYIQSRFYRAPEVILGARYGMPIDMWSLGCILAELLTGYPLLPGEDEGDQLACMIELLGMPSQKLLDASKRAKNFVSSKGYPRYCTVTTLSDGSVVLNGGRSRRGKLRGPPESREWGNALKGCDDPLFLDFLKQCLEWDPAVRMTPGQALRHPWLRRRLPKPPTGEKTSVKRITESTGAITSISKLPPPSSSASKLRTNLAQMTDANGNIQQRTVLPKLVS
The data set is described as follows: Kinase-GLO luminescent kinase assay. The format is biochemical. As to conditions: 1 μM compound; means of at least 3 measurements. The protocol:
(§1) Bacterial expression plasmids for GST-DYRK1A-ΔC and GST-DYRK2 have been described earlier. […] Expression in logarithmically growing E. coli culture was performed for 3 h at 37°C (GST-DYRK1A-ΔC and GST-DYRK2), 3 h at 26°C (GST-HIPK2cat), over night at 28°C (GST-CLK1cat) or over night at room temperature (GST-DYRK1Bcat).
(§2) Compounds were screened for inhibitory effects against GST-DYRK1A-ΔC, GST-DYRK1Bcat, GST-DYRK2, GST-CLK1cat or GST-HIPK2cat using the Kinase-GLO Luminescent Kinase Assay from Promega. Assays were performed in a total volume of 10 μL in kinase-buffer (25 mM Hepes pH 7.4, 0.5 mM DTT, 5 mM MgCl2, 5 μM ATP) with appropriate peptide substrates (20 μM DYRKtide for the DYRKs and 100 μM DYRKtide for HIPK2, […]; or 100 μM RS domain-derived peptide for CLK1, […]). Assays were started with this amount of a kinase preparation that consumed approximately 90% of the ATP in the assay (linear range of the kinase titration curve). The reactions were run at room temperature for 30 min before 10 μL Kinase-GLO reagent was added. After incubation at room temperature for additional 10 min, luminescence was recorded for 1 s.
(Kinase-Glo reads ATP consumption through a luciferase reaction.)

For data set [3], the target named is T2, DYRK1A (Homo sapiens, UniProt Q13627).
T2 construct: purchased ProQinase (Freiburg, Germany)
In words: Kinase-GLO luminescent kinase assay. The format is biochemical. As to conditions: 1 μM compound; means of at least 3 measurements. The protocol:
as §1, §2

The target of data set [4] is T3, DYRK1A (Rattus norvegicus, UniProt Q63470).
T3 construct: Bacterial expression plasmids for GST-DYRK1A-ΔC and GST-DYRK2 have been described earlier; made in house; host or cells: E. coli
In words: Radioactive kinase assay (DYRKtide, 33P-ATP). The format is biochemical. Conditions: 100 μM ATP, n = 3–5 concentration response curves, read-out: Inhibition of DYRK1A IC50. The protocol: Each sample was assayed in triplicate. […]
estimate solubility and permeability in drug discovery and development settings. Adv. Drug Delivery Rev. 23, 4-25. […]
that influence the oral bioavailability of drug candidates. […]
c estimated using the Molinspiration logP engine. […]
log [inhibitor,M] log [inhibitor, M]
(§3) 2 were calculated. Kinase activity of DYRK1A was determined by radiometric assays using the peptide DYRKtide as a substrate. MAO-A activity was measured with the help of the MAO-GLO assay kit (Promega). IC50 values were calculated by curve fitting with the help of […]
(§4) the […] PRISM 5.0 program after automatic outlier elimination. The graphs present

Data set [5] concerns the target T4, MAO-A (Homo sapiens, UniProt P21397).
T4 sequence (P21397 1-527): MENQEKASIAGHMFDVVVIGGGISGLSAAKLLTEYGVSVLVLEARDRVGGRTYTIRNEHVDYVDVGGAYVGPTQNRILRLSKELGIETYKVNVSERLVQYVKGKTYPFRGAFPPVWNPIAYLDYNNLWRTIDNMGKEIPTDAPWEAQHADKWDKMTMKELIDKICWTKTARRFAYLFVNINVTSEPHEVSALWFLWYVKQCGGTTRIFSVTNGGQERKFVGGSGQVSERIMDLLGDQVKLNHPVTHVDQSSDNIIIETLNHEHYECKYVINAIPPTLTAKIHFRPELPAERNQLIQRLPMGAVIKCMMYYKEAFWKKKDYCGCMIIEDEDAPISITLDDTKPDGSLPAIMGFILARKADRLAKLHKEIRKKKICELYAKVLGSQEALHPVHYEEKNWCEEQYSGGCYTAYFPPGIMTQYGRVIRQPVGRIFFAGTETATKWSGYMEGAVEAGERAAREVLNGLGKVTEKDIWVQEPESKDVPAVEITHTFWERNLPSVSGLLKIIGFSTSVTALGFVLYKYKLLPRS
The data set is described as follows: MAO-GLO assay. Conditions: for IC50: read-out: Inhibition of MAO-A IC50. It is filed as biochemical. The protocol:
as §3, §4

Data set [6] deals with HIPK2 (Homo sapiens, UniProt Q9H2X6). In words: Kinase-GLO luminescent kinase assay. The format is biochemical. On the set-up: made in house; host or cells: E. coli. As to conditions: 10 μM compound; means of at least 3 measurements. The protocol:
as §1, §2

The target in data set [7] is DYRK1B (Homo sapiens, UniProt Q9Y463). In words: Kinase-GLO luminescent kinase assay. It is filed as biochemical. On the set-up: made in house; host or cells: E. coli. As to conditions: 1 μM compound; means of at least 3 measurements. As for the experimental part:
as §1, §2

Data set [8] concerns the target T5, CLK1 (Homo sapiens, UniProt P49759). The data set is described as follows: Kinase-GLO luminescent kinase assay. It is filed as biochemical. Conditions: 1 μM compound; means of at least 3 measurements. Also on record: made in house; host or cells: E. coli. The protocol: as §1, §2
Data set [9] in a line: Cell viability XTT assay. It is filed as cell-based. As to conditions: human, HeLa cells, read-out: Viability of treated cells relative to untreated control.
Data set [10] can be described thus: Cell viability XTT assay. It is filed as cell-based. As to conditions: human, SH-SY5Y cells, read-out: Viability of treated cells relative to untreated control.
Data set [11] has as its target HIPK1 (Homo sapiens, UniProt Q86Z02). Also on record: purchased ProQinase (Freiburg, Germany). Conditions: 10 μM; cited from earlier work.
Data set [12] concerns the target T6, CLK3 (Homo sapiens, UniProt P49761).
T6 construct: purchased ProQinase (Freiburg, Germany)
Conditions: 10 μM; cited from earlier work.

In data set [13] the target is PIM1 (Homo sapiens, UniProt P11309). On the set-up: purchased ProQinase (Freiburg, Germany). As to conditions: 10 μM; cited from earlier work.
Chain of PIM1 (P11309 whole entry): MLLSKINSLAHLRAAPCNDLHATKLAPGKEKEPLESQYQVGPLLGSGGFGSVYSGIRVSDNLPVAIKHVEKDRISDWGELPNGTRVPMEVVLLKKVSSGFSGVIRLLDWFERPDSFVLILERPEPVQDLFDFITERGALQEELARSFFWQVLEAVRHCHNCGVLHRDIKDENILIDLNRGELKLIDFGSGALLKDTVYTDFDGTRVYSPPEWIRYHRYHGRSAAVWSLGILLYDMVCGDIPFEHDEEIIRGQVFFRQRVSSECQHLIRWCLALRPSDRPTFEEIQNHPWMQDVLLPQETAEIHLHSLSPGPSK
In data set [14] the target is T7, DYRK3 (Homo sapiens, UniProt O43781).
T7 construct: purchased ProQinase (Freiburg, Germany)
T7 sequence (O43781 1-588): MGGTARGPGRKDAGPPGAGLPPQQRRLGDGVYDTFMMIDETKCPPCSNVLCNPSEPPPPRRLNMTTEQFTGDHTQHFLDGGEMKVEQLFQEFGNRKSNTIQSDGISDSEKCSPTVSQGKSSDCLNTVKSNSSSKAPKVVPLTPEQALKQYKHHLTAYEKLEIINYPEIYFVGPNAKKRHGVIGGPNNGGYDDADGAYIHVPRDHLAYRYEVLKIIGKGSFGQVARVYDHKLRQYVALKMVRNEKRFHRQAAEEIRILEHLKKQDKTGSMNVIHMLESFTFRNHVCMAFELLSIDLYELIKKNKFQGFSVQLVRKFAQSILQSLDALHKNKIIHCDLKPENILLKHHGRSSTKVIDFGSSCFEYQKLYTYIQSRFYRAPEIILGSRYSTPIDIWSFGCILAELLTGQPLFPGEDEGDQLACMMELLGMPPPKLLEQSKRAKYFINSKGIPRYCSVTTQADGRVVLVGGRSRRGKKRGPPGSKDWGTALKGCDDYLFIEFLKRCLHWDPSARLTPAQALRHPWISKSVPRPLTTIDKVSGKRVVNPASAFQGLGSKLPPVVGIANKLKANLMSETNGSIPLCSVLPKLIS
Conditions: 10 μM; cited from earlier work.

Data set [15] concerns the target T1, DYRK2. As to conditions: 10 μM; cited from earlier work.
In data set [16] the target is T8, DYRK4 (Homo sapiens, UniProt Q9NR20).
T8 construct: purchased ProQinase (Freiburg, Germany)
T8 sequence (Q9NR20 whole entry): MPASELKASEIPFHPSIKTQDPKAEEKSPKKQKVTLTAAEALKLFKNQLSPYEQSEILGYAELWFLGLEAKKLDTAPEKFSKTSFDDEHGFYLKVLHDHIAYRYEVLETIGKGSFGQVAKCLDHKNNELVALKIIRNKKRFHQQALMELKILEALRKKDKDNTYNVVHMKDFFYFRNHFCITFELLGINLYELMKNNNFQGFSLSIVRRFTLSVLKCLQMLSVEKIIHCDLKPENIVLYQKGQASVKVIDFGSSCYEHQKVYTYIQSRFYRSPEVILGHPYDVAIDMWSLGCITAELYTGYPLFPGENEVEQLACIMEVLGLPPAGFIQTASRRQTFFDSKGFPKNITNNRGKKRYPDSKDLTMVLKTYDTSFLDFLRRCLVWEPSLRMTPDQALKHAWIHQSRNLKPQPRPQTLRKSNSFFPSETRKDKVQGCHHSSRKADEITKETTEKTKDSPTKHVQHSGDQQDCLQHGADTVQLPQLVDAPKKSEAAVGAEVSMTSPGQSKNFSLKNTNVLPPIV
As to conditions: 10 μM; cited from earlier work.

Data set [17] has as its target T9, CLK2 (Homo sapiens, UniProt P49760).
T9 construct: purchased ProQinase (Freiburg, Germany)
Conditions: 10 μM; cited from earlier work.

Data set [18] deals with T5, CLK1. On the set-up: purchased ProQinase (Freiburg, Germany). Conditions: 10 μM; cited from earlier work.
Data set [19] relates to DYRK1A. Conditions: given because %-activity values are not given in the reference; read-out: IC50; cited from earlier work.
The mark [20] stands for this setting: n = 3–5 concentration response curves.

Chain of HIPK2 (Q9H2X6 180-533): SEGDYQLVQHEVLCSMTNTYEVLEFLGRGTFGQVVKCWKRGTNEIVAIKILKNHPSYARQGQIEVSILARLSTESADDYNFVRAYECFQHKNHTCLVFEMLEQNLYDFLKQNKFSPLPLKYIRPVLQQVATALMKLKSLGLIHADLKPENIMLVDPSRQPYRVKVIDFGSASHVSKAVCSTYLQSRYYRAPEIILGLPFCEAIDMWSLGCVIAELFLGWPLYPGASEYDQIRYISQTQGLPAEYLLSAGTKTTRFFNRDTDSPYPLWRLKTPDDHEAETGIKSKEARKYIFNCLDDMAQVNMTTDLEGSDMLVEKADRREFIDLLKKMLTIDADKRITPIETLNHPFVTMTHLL
T9 sequence (P49760 whole entry): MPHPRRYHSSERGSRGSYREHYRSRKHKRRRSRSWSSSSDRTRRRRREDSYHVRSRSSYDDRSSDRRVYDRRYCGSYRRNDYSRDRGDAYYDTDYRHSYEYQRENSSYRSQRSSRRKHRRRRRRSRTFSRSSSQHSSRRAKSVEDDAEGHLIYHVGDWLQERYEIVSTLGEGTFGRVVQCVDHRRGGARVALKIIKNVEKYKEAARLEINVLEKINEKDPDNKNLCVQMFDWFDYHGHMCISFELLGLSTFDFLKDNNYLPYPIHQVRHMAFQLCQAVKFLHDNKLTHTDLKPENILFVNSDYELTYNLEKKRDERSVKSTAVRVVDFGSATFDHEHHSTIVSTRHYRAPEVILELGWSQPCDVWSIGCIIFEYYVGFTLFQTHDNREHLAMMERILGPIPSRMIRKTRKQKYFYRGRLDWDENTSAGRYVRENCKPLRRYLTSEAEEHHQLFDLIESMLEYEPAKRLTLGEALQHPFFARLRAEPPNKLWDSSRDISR
Chain of HIPK1 (Q86Z02 whole entry): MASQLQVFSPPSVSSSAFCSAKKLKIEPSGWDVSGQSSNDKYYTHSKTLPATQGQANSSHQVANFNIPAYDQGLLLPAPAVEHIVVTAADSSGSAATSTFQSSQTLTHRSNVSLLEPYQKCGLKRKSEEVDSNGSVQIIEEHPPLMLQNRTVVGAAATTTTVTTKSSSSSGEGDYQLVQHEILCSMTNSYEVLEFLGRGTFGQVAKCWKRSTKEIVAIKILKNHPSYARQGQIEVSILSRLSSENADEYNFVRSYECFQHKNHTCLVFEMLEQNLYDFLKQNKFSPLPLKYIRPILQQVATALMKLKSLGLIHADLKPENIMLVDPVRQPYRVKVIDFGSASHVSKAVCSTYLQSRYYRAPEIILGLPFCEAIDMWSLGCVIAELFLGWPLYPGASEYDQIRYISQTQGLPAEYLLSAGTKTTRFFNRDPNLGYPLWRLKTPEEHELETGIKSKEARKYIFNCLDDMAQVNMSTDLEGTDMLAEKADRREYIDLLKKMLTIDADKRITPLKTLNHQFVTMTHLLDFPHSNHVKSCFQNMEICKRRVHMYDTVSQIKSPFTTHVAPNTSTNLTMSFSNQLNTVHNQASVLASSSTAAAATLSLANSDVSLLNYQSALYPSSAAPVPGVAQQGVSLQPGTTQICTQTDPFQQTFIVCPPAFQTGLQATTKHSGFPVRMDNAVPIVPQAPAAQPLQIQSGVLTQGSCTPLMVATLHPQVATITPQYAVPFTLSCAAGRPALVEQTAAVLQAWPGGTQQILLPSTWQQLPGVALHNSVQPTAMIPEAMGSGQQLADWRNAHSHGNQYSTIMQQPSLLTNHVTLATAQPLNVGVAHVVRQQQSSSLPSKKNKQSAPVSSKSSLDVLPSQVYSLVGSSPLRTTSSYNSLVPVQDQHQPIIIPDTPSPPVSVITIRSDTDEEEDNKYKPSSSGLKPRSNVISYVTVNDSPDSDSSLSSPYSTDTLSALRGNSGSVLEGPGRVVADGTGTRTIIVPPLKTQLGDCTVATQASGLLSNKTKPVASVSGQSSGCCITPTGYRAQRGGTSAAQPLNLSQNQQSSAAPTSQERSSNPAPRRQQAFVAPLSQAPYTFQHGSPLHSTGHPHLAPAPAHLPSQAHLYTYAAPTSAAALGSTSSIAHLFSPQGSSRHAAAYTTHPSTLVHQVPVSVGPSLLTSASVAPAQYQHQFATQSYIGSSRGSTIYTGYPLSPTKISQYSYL
T6 sequence (P49761 whole entry): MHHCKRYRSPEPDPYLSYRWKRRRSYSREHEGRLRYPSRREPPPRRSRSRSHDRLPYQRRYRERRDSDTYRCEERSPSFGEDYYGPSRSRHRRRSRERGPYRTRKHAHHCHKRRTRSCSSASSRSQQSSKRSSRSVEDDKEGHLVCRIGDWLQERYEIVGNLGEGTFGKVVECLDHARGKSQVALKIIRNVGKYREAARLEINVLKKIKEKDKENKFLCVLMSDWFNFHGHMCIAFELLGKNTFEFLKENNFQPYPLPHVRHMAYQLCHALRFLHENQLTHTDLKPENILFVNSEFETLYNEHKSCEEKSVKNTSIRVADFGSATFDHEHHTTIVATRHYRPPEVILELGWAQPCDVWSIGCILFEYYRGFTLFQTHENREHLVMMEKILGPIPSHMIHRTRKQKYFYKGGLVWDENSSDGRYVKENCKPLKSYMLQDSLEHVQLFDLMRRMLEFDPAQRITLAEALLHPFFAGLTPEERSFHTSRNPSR

The term viability denotes the share of living cells, or the viability signal relative to a control. One may read the IC50 as the midpoint of a concentration-inhibition curve. The term inhibition denotes the drop in the measured response relative to a control, in per cent. A lower inhibition goes with a weak effect. Regarding `COc1ccc2c3ccnc(C)c3n(CC#N)c2c1` [AnnH31], the figures for the viability at 3 days, 1 µM in data set [1], in data set [9] and in data set [10] were 89%, 93% and 81%, respectively. The viability at 3 days, 3 µM in data set [1] turned out to be 88%; in [9], 80%; in data set [10] it was 88%. In addition, the viability at 3 days, 10 µM is 70% in [1], 55% in data set [9] and 38% in [10]. The “Residual activity (% of control) DYRK2” value in data set [2] is given as 59 % of control. Also, in data set [3], the “Residual activity (% of control) DYRK1A” value is on record as 8 % of control. Besides, the figures for the IC50 in data set [4], in [5] (setting [20]) and in data set [5] were 0.081 µM, 3.24 µM and 3.2 µM, respectively. Also, testing at 1 µM in [5] (1 μM, primary screen) gave an inhibition of 25%. In data set [5] (ratio of IC50 values), the “selectivity for DYRK1A over MAO-A” value was determined as 40 fold. The “Residual activity (% of control) HIPK2” value in data set [6] is given as 70 % of control. The “Residual activity (% of control) DYRK1B” value in [7] is reported as 7 % of control. For the same compound, in data set [8], the “Residual activity (% of control) CLK1” value is 11 % of control.
In the case of `COc1ccc2c3ccnc(C)c3n(C(C)C#N)c2c1` (centres unmarked) [AnnH43], the viability at 3 days, 1 µM in data set [1] came out at 88%; in [9], 91%; in data set [10], 61%. Also, the viability at 3 days, 3 µM in data set [1] turned out to be 88%; in data set [9] it was 80%; in [10], 68%. Besides, the viability at 3 days, 10 µM in data set [1] came to 90%; in data set [9], 66%; in [10] it was 45%. Further, the “Residual activity (% of control) DYRK2” value in data set [2] was 56 % of control. Also, the “Residual activity (% of control) DYRK1A” value in [3] is given as 5 % of control. Besides, the figures for the half-inhibitory concentration (IC50) in data set [4] and in data set [5] (setting [20]) were 0.202 µM and 5.39 µM, respectively. In addition, in data set [6], the “Residual activity (% of control) HIPK2” value is given as 84 % of control. For the same compound, the “Residual activity (% of control) DYRK1B” value in data set [7] is given as 14 % of control. Besides, the “Residual activity (% of control) CLK1” value in data set [8] was 10 % of control.
With `CCN1/C(=C/C(C)=O)Sc2ccc(O)cc21` [INDY], the “Residual activity (% of control)” value in data set [11] is on record as 64 % of control; in data set [12], 30 % of control; in [13], 2 % of control; in data set [14], 0 % of control; in data set [15], 3 % of control; in data set [16], 13 % of control. The “Residual activity (% of control)” value in data set [17] is listed as 12 % of control; in [18], 1 % of control. Besides, in data set [19], the half-maximal inhibitory concentration (IC50) is […].
